Laboratory results reported in patent US9670157B2, “Benzylamine derivatives” (KALVISTA PHARMACEUTICALS LIMITED, priority 2013, dated 2017).

Columns and labels:
Human plasma kallikrein = Human plasma kallikrein (Homo sapiens (Human), UniProt P03952); experiment: Determination of the IC50 for Plasma Kallikrein; assay type: biochemical; conditions: 37° C., fluorogenic substrate H-DPro-Phe-Arg-AFC; read-out: IC50 (human PKal)
Method: Human plasma kallikrein (Protogen) was incubated at 37° C. with the fluorogenic substrate H-DPro-Phe-Arg-AFC and various concentrations of the test compound. Residual enzyme activity (initial rate of reaction) was determined by measuring the change in optical absorbance at 410 nm and the IC50 value for the test compound was determined.

Human KLK1 = Human KLK1 (Homo sapiens (Human), UniProt P06870); experiment: Determination of the IC50 for KLK1; assay type: biochemical; conditions: 37° C., fluorogenic substrate H-DVal-Leu-Arg-AFC
Sequence of Human KLK1 (P06870 25-262): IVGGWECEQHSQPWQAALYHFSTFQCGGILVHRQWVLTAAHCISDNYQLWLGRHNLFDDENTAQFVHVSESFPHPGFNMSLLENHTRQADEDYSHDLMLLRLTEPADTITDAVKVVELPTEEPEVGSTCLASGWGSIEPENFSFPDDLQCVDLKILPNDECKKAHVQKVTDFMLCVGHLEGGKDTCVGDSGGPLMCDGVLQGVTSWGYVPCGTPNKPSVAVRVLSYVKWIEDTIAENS
Method: KLK1 inhibitory activity in vitro was determined using standard published methods (see e.g. Johansen et al., Int. J. Tiss. Reac. 1986, 8, 185; Shori et al., Biochem. Pharmacol., 1992, 43, 1209; Stürzebecher et al., Biol. Chem. Hoppe-Seyler, 1992, 373, 1025). Human KLK1 (Callbiochem) was incubated at 37° C. with the fluorogenic substrate H-DVal-Leu-Arg-AFC and various concentrations of the test compound. Residual enzyme activity (initial rate of reaction) was determined by measuring the change in optical absorbance at 410 nm and the IC50 value for the test compound was determined.

Sequence of Human plasma kallikrein (P03952 391-638): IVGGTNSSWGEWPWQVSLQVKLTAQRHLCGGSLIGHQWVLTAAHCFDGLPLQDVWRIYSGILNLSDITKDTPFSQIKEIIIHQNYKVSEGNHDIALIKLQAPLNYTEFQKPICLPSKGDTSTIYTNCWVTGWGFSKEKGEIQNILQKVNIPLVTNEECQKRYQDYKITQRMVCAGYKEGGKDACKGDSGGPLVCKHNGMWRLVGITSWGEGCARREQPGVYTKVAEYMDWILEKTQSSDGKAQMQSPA
Sequence of Human plasma kallikrein (P03952 20-390 partner): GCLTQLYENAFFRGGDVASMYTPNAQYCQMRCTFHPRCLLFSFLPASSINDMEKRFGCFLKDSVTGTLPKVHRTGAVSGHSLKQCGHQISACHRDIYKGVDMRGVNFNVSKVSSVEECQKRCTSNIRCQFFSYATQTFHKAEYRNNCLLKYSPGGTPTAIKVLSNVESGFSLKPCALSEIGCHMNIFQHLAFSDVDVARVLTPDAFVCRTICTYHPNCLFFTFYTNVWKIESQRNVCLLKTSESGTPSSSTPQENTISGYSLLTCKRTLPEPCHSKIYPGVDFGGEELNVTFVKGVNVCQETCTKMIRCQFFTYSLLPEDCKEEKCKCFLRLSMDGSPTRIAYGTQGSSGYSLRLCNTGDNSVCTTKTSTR

Compound	IC50 (Human plasma kallikrein) [µM]	IC50 (Human KLK1) [µM]
Cc1cc(C(=O)N[C@H](C)c2ccc(CN)cc2)c(C)n1Cc1csc(-c2ccccc2)n1 [Example 42, 2,5-Dimethyl-1-(2-phenyl-thiazol-4-ylmethyl)-1H-pyrrole-3-carboxylic acid [(R)-1-(4-aminomethyl-phenyl)-ethyl]-amide]	0.953	> 10
Cc1cc(C(=O)NCc2ccc(CN)nc2)c(C)n1Cc1csc(-c2cccc(F)c2)n1 [Example 44, 1-[2-(3-Fluoro-phenyl)-thiazol-4-ylmethyl]-2,5-dimethyl-1H-pyrrole-3-carboxylic acid (6-aminomethyl-pyridin-3-ylmethyl)-amide]	0.355	> 10
Cc1cc(CNC(=O)c2cc(C)n(Cc3csc(-c4ccccc4)n3)c2C)ccc1CN [Example 46, 2,5-Dimethyl-1-(2-phenyl-thiazol-4-ylmethyl)-1H-pyrrole-3-carboxylic acid 4-aminomethyl-3-methyl-benzylamide]	1.16	4.89
Cc1cc(C(=O)NCc2ccc(CN)cc2F)c(C)n1Cc1csc(-c2ccccc2)n1 [Example 47, 2,5-Dimethyl-1-(2-phenyl-thiazol-4-ylmethyl)-1H-pyrrole-3-carboxylic acid 4-aminomethyl-2-fluoro-benzylamide]	0.074	> 10
Cc1cc(C(=O)NCc2ccc([C@@H](C)N)cc2)c(C)n1Cc1csc(-c2ccccc2)n1 [Example 48, 2,5-Dimethyl-1-(2-phenyl-thiazol-4-ylmethyl)-1H-pyrrole-3-carboxylic acid 4-((R)-1-amino-ethyl)-benzylamide]	0.624	> 10
Cc1cc(C(=O)NCc2ccc(CN)cc2Cl)c(C)n1Cc1csc(-c2ccccc2)n1 [Example 49, 2,5-Dimethyl-1-(2-phenyl-thiazol-4-ylmethyl)-1H-pyrrole-3-carboxylic acid 4-aminomethyl-2-chloro-benzylamide]	0.089	> 10
Cc1cc(C(=O)NCc2ccc(CN)cc2C(F)(F)F)c(C)n1Cc1csc(-c2ccccc2)n1 [Example 50, 2,5-Dimethyl-1-(2-phenyl-thiazol-4-ylmethyl)-1H-pyrrole-3-carboxylic acid 4-aminomethyl-2-trifluoromethyl-benzylamide]	0.056	> 10
Cc1cc(C(=O)NCc2ccc([C@H](C)N)cc2)c(C)n1Cc1csc(-c2ccccc2)n1 [Example 51, 2,5-Dimethyl-1-(2-phenyl-thiazol-4-ylmethyl)-1H-pyrrole-3-carboxylic acid-4-((S)-1-amino-ethyl)-benzylamide]	0.341	> 10
Cc1cc(C(=O)NC2(c3ccc(CN)cc3)CC2)c(C)n1Cc1csc(-c2ccccc2)n1 [Example 52, 2,5-Dimethyl-1-(2-phenyl-thiazol-4-ylmethyl)-1H-pyrrole-3-carboxylic acid [1-(4-aminomethyl-phenyl)-cyclopropyl]-amide]	0.475	> 10
COc1cc(CNC(=O)c2cc(C)n(Cc3csc(-c4ccccc4)n3)c2C)ccc1CN [Example 53, 2,5-Dimethyl-1-(2-phenyl-thiazol-4-ylmethyl)-1H-pyrrole-3-carboxylic acid 4-aminomethyl-3-methoxy-benzylamide]	0.677	> 10
COc1cc(CN)ccc1CNC(=O)c1cc(C)n(Cc2csc(-c3ccccc3)n2)c1C [Example 54, 2,5-Dimethyl-1-(2-phenyl-thiazol-4-ylmethyl)-1H-pyrrole-3-carboxylic acid 4-aminomethyl-2-methoxy-benzylamide]	0.03	> 10
Cc1cc(C(=O)NCc2ccc(CN)cc2Cl)c(C)n1Cc1ccccc1 [Example 56, 1-Benzyl-2,5-dimethyl-1H-pyrrole-3-carboxylic acid 4-aminomethyl-2-chloro-benzylamide]	3.86	5.48
Cc1cc(C(=O)NCc2ccc(CN)cc2)c(-c2ccccc2)n1Cc1ccccc1 [Example 57, 1-Benzyl-5-methyl-2-phenyl-1H-pyrrole-3-carboxylic acid 4-aminomethyl-benzylamide]	7.18	> 10
CCOc1cccc(Cn2c(C)cc(C(=O)NCc3ccc(CN)cc3)c2C)c1 [Example 58, 1-(3-Ethoxy-benzyl)-2,5-dimethyl-1H-pyrrole-3-carboxylic acid 4-aminomethyl-benzylamide]	4.92	> 10
CCOc1ccc(Cn2c(C)cc(C(=O)NCc3ccc(CN)cc3)c2C)cc1 [Example 59, 1-(4-Ethoxy-benzyl)-2,5-dimethyl-1H-pyrrole-3-carboxylic acid 4-aminomethyl-benzylamide]	2.74	> 10
Cc1cc(C(=O)NCc2ccc(CN)cc2)c(C)n1Cc1ccc(OCc2ccccc2)cc1 [Example 60, 1-(4-Benzyloxy-benzyl)-2,5-dimethyl-1H-pyrrole-3-carboxylic acid 4-aminomethyl-benzylamide]	3.12	> 10

Compound	IC50 (Human plasma kallikrein) [µM]	IC50 (Human KLK1) [µM]
COc1ccc(Cn2c(C)cc(C(=O)NCc3ccc(CN)cc3)c2C)cc1 [Example 61, 1-(4-Methoxy-benzyl)-2,5-dimethyl-1H-pyrrole-3-carboxylic acid 4-aminomethyl-benzylamide]	2.99	> 10
Cc1cc(C(=O)NCc2ccc(CN)cc2)c(C)n1Cc1cccc(C(N)=O)c1 [Example 62, 1-(3-Carbamoyl-benzyl)-2,5-dimethyl-1H-pyrrole-3-carboxylic acid 4-aminomethyl-benzylamide]	6.03	> 10
Cc1cc(C(=O)NCc2ccc(CN)cc2)c(C)n1Cc1ccc(C(N)=O)cc1 [Example 63, 1-(4-Carbamoyl-benzyl)-2,5-dimethyl-1H-pyrrole-3-carboxylic acid 4-aminomethyl-benzylamide]	7.34	> 10
Cc1cc(C(=O)NCc2ccc(CN)cc2)c(C)n1Cc1cccc(C#N)c1 [Example 64, 1-(3-Cyano-benzyl)-2,5-dimethyl-1H-pyrrole-3-carboxylic acid 4-aminomethyl-benzylamide]	6.25	> 10
Cc1cc(C(=O)NCc2ccc(CN)cc2)c(C)n1Cc1ccc(C#N)cc1 [Example 65, 1-(4-Cyano-benzyl)-2,5-dimethyl-1H-pyrrole-3-carboxylic acid 4-aminomethyl-benzylamide]	4.56	> 10
Cc1cc(C(=O)NCc2ccc(CN)cc2)c(C)n1Cc1cccc(CN)c1 [Example 66, 1-(3-Aminomethyl-benzyl)-2,5-dimethyl-1H-pyrrole-3-carboxylic acid 4-aminomethyl-benzylamide]	5.38	4.23
Cc1cc(C(=O)NCc2ccc(CN)cc2)c(C)n1Cc1ccc(CN)cc1 [Example 67, 1-(4-Aminomethyl-benzyl)-2,5-dimethyl-1H-pyrrole-3-carboxylic acid 4-aminomethyl-benzylamide]	3.5	6.97
CC(=O)NCc1ccc(Cn2c(C)cc(C(=O)NCc3ccc(CN)cc3)c2C)cc1 [Example 68, 1-[4-(Acetylamino-methyl)-benzyl]-2,5-dimethyl-1H-pyrrole-3-carboxylic acid 4-aminomethyl-benzylamide]	2.09	> 10
Cc1cc(C(=O)NCc2ccc(CN)cc2)c(C)n1Cc1cccc(-c2ccccc2)c1 [Example 69, 1-Biphenyl-3-ylmethyl-2,5-dimethyl-1H-pyrrole-3-carboxylic acid 4-aminomethyl-benzylamide]	0.689	> 10
Cc1cc(C(=O)NCc2ccc(CN)cc2)c(C)n1Cc1ccc(-c2ccccc2)cc1 [Example 70, 1-Biphenyl-4-ylmethyl-2,5-dimethyl-1H-pyrrole-3-carboxylic acid 4-aminomethyl-benzylamide]	4.59	> 10
Cc1cc(C(=O)NCc2ccc(CN)cc2)c(C)n1Cc1cccc(-c2cccnc2)c1 [Example 71, 2,5-Dimethyl-1-(3-pyridin-3-yl-benzyl)-1H-pyrrole-3-carboxylic acid 4-aminomethyl-benzylamide]	0.702	> 10
Cc1cc(C(=O)NCc2ccc(CN)cc2)c(C)n1Cc1cccc(-c2ccncc2)c1 [Example 72, 2,5-Dimethyl-1-(3-pyridin-4-yl-benzyl)-1H-pyrrole-3-carboxylic acid 4-aminomethyl-benzylamide]	3.02	> 10
Cc1cc(C(=O)NCc2ccc(CN)cc2)c(C)n1Cc1cccc(N2CCOCC2)c1 [Example 73, 2,5-Dimethyl-1-(3-morpholin-4-yl-benzyl)-1H-pyrrole-3-carboxylic acid 4-aminomethyl-benzylamide]	7.58	> 10
Cc1cc(C(=O)NCc2ccc(CN)cc2)c(C)n1Cc1cccc(N2CCCCC2)c1 [Example 74, 2,5-Dimethyl-1-(3-piperidin-1-yl-benzyl)-1H-pyrrole-3-carboxylic acid 4-aminomethyl-benzylamide]	1.58	> 10
Cc1cc(C(=O)NCc2ccc(CN)cc2)n(C)c1Cc1ccccc1 [Example 75, 5-Benzyl-1,4-dimethyl-1H-pyrrole-2-carboxylic acid 4-aminomethyl-benzylamide]	4.5	> 10
Cc1cc(C(=O)NCc2ccc(CN)cc2)[nH]c1Cc1ccccc1 [Example 76, 5-Benzyl-4-methyl-1H-pyrrole-2-carboxylic acid 4-aminomethyl-benzylamide]	8.77	> 10
